According to PubChem BioAssay AID328 (DTP/NCI, 2004):
Where “and” joins values, the source holds several entries; their conditions need not be identical. Identical values can stand only once. Inconclusive results and toxic doses are left out.

System: BDF1 mice, P388 leukemia ip, median survival T/C
Test: NCI In Vivo Anticancer Drug Screen. Data for tumor model P388 Leukemia (intraperitoneal) in B6D2F1 (BDF1) mice
Conditions: endpoint: median survival time, higher = longer survival
Outline: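 Read-out is survival of treated animals expressed relative to the vehicle group, as a T/C ratio.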

[1] = dose: 12.5 mg/kg/injection, schedule: Q04DX003 (ip), vehicle: saline
[2] = dose: 25.0 mg/kg/injection, schedule: Q04DX003 (ip), vehicle: saline
[3] = dose: 50.0 mg/kg/injection, schedule: Q04DX003 (ip), vehicle: saline
[4] = dose: 100.0 mg/kg/injection, schedule: Q04DX003 (ip), vehicle: Klucel (hydroxypropylcellulose) (HPC)
[5] = dose: 200.0 mg/kg/injection, schedule: Q04DX003 (ip), vehicle: Klucel (hydroxypropylcellulose) (HPC)
[6] = dose: 400.0 mg/kg/injection, schedule: Q04DX003 (ip), vehicle: Klucel (hydroxypropylcellulose) (HPC)
[7] = dose: 100.0 mg/kg/injection, schedule: Q04DX003 (ip), vehicle: saline
[8] = dose: 200.0 mg/kg/injection, schedule: Q04DX003 (ip), vehicle: saline
[9] = dose: 400.0 mg/kg/injection, schedule: Q04DX003 (ip), vehicle: saline
[10] = dose: 100.0 mg/kg/injection, schedule: Q04DX003 (ip), vehicle: saline with Tween-80
[11] = dose: 200.0 mg/kg/injection, schedule: Q04DX003 (ip), vehicle: saline with Tween-80
[12] = dose: 400.0 mg/kg/injection, schedule: Q04DX003 (ip), vehicle: saline with Tween-80

**Q.** With O=C(O/N=C1\C2CCC(C2)C1Cl)c1ccc([N+](=O)[O-])cc1 (stereo not drawn) as the compound, how does the T/C [1] read?
**A.** 100 % of control

**Q.** And the T/C [2]?
**A.** 96 % of control

**Q.** What about the T/C [3] of the same compound?
**A.** 103 % of control

**Q.** With CSC1CCCC(=O)C1 (stereo not drawn) as the compound, how does the T/C (dose: 12.5 mg/kg/injection, schedule: Q01DX009 (ip), vehicle: Klucel (hydroxypropylcellulose) (HPC)) read?
**A.** 100 % of control

**Q.** And the T/C (dose: 25.0 mg/kg/injection, schedule: Q01DX009 (ip), vehicle: Klucel (hydroxypropylcellulose) (HPC))?
**A.** 105 % of control

**Q.** What about the T/C [4] of the same compound?
**A.** 100 % of control

**Q.** What about the T/C [5] of the same compound?
**A.** 95 % of control

**Q.** And the T/C [6]?
**A.** 90 % of control

**Q.** With CC(C)(C)OC(=O)NO as the compound, how does the T/C (dose: 100.0 mg/kg/injection, schedule: Q01DX009 (ip), vehicle: saline) read?
**A.** 105 % of control

**Q.** And the T/C [7]?
**A.** 91 % of control

**Q.** What about the T/C (dose: 200.0 mg/kg/injection, schedule: Q01DX009 (ip), vehicle: saline) of the same compound?
**A.** 95 % of control

**Q.** What about the T/C [8] of the same compound?
**A.** 95 % of control

**Q.** And the T/C (dose: 400.0 mg/kg/injection, schedule: Q01DX009 (ip), vehicle: saline)?
**A.** 90 % of control

**Q.** And the T/C [9]?
**A.** 95 % of control

**Q.** For CC(Br)C(=O)NC(CO)C(=O)O (stereo not drawn), which T/C [7] is on record?
**A.** 95 % of control

**Q.** What about the T/C [8] of the same compound?
**A.** 91 % of control

**Q.** What about the T/C [9] of the same compound?
**A.** 91 % of control

**Q.** How did the T/C [10] turn out when Cc1ncc([N+](=O)[O-])n1CCSC(=N)N was run?
**A.** 105 % of control

**Q.** What about the T/C [11] of the same compound?
**A.** 105 % of control

**Q.** With CC(C)OC(=O)Nc1ccccc1Cl as the compound, how does the T/C [3] read?
**A.** 95 % of control

**Q.** With CC12CCC(O)CC1CCC1C2CCC2(C)C(C3=CC(=O)OC3)CCC12O (stereo not drawn) as the compound, how does the T/C (dose: 2.0 mg/kg/injection, schedule: Q01DX009 (ip), vehicle: Klucel (hydroxypropylcellulose) (HPC)) read?
**A.** 90 % of control

**Q.** What about the T/C (dose: 2.0 mg/kg/injection, schedule: Q01DX010 (ip), vehicle: carboxymethylcellulose (CMC)) of the same compound?
**A.** 95 % of control

**Q.** And the T/C (dose: 4.0 mg/kg/injection, schedule: Q01DX009 (ip), vehicle: Klucel (hydroxypropylcellulose) (HPC))?
**A.** 105 % of control

**Q.** What about the T/C (dose: 8.0 mg/kg/injection, schedule: Q01DX009 (ip), vehicle: Klucel (hydroxypropylcellulose) (HPC)) of the same compound?
**A.** 112 % of control

**Q.** And the T/C (dose: 8.0 mg/kg/injection, schedule: Q01DX010 (ip), vehicle: carboxymethylcellulose (CMC))?
**A.** 104 % of control

**Q.** COc1cccc(CNc2cccc(Cl)c2Cl)c1OC was tested. Which T/C [10] did it give?
**A.** 100 % of control

**Q.** And the T/C [11]?
**A.** 104 % of control

**Q.** And the T/C [12]?
**A.** 100 % of control

**Q.** Which results are given for CC(C)=CCC/C(C)=C/CNc1ncnc2nc[nH]c12?
**A.** T/C [10]: 100 % of control; T/C [11]: 90 % of control; T/C [12]: 109 % of control and 111 % of control

**Q.** For CCOC(=O)Nc1cc2c(c(N)n1)N=C(c1ccccc1)CN2, which T/C (dose: 1.0 mg/kg/injection, schedule: Q01DX009 (ip), vehicle: saline with Tween-80) is on record?
**A.** 115 % of control

**Q.** What about the T/C (dose: 2.0 mg/kg/injection, schedule: Q01DX009 (ip), vehicle: saline with Tween-80) of the same compound?
**A.** 151 % of control

**Q.** And the T/C (dose: 3.0 mg/kg/injection, schedule: Q01DX009 (ip), vehicle: saline with Tween-80)?
**A.** 151 % of control

**Q.** What about the T/C (dose: 3.0 mg/kg/injection, schedule: Q04DX003 (ip), vehicle: saline with Tween-80) of the same compound?
**A.** 117 % of control

**Q.** How did the T/C (dose: 50.0 mg/kg/injection, schedule: Q01DX009 (ip), vehicle: Klucel (hydroxypropylcellulose) (HPC)) turn out when Cc1ccc(S(=O)(=O)NC(=O)C2C(=O)CC3(CCCCC3)CC2=O)cc1 was run?
**A.** 109 % of control

**Q.** And the T/C (dose: 100.0 mg/kg/injection, schedule: Q01DX009 (ip), vehicle: Klucel (hydroxypropylcellulose) (HPC))?
**A.** 118 % of control

**Q.** Which T/C [1] does the source give for C=CCOB(OCC=C)OCC=C here?
**A.** 108 % of control

**Q.** What about the T/C [2] of the same compound?
**A.** 100 % of control

**Q.** What about the T/C [3] of the same compound?
**A.** 91 % of control

**Q.** What does the source list for CCCCCCCCCCC(CCCCCCCCCC)CCCCCCCCC(CCCCCCCCCC)CCCCCCCCCC?
**A.** T/C [4]: 108 % of control; T/C [5]: 93 % of control; T/C [6]: 97 % of control
